Data published in patent publication US5278176A (Abbott Laboratories, priority 1992, dated 1994).
Structures can show the parent of a compound that is named as a salt.

Key:
insecticidal activity = conditions: U.S. Pat. No. 4,093,620; cited from earlier work
[1] = target: Neuronal Nicotinic Receptors; assay: Binding of [^3 H]-methylcarbamylcholine ([^3 H]-MCC) to neuronal nicotinic receptors (Table 1); set-up: species or system rat
Protocol: Protocols for Determination of Nicotinic Receptor Binding Potencies of Agonists
Binding of [^3 H]-methylcarbamylcholine ([^3 H]-MCC) to nicotinic receptor was accomplished using crude synaptic membrane preparations from whole rat brain (Snyder and Enna, Brain Research, 1975, 100:81). Washed membranes were stored at -80° C. prior to use. Frozen aliquots were slowly thawed and resuspended in 20 volumes of buffer (containing: 120 mM NaCl, 5 mM KCl, 2 mM MgCl2, 2 mM CaCl2 and 50 mM Tris-Cl, pH 7.4 @4° C.). After centrifuging at 20,000 g for 15 minutes, the pellets were resuspended in 30 volumes of buffer. Homogenate (containing 125-150 μg protein) was added to triplicate tubes containing concentrations of test compound and [^3 H]-MCC (3 nM) in a final volume of 500 μL. Samples were incubated for 60 minutes at 4° C., then rapidly filtered through Whatman GF/B filters presoaked in 0.5% polyethylimine using 3×4 mL of ice-cold buffer. The filters are counted in 4 mL of Ecolume® (ICN). […] Alternately, data were expressed as a percentage of the total specific binding.

[2] = test system: anxiolytic activity (time in open arms); assay: Mouse Elevated Plus-Maze Studies; type: in vivo, CD1 mice
Protocol: FIG. 4 is a graphical representation of the effects of the compound of Example 4 (0.003-0.3 mg/kg) on the performance of CD1 mice in the Elevated-Plus Maze Study expressed as median time (seconds) spent on the open arms of the maze.
The mouse elevated plus-maze is a conflict test that probes anxiolytic activity of test compounds (Lister, Psychopharmacology, 1987, 92:180). It is based on the fact that exposure of mice to an elevated open arm leads to an avoidance response considerably stronger than that evoked by exposure to an enclosed arm.
The apparatus required to perform this test is made of plywood and consists of two open arms (17×8 cm) and two enclosed arms (17×8×15 cm) extending from a central platform (8×8 cm). It is mounted on a plywood base rising 39 cm above the floor. Mice are released on the central platform and the time spent in the open and enclosed arms is recorded during a 5 minute test period.
The compound of Example 4 (0.62-6.2 μmol/kg, IP) was administered to CD1 mice 15 minutes before the test.

[3] = test system: retention of the avoidance response; assay: Inhibitory Avoidance Studies; type: in vivo, CD1 mice; conditions: 0.06-6.2 μmol/kg IP, 15 min before training; FIG. 2
Protocol: FIG. 2 is a graphical representation (bar graph) of the effects of the compound of Example 8 (0.001-1.0 mg/kg) on the performance of CD1 mice in Inhibitory Avoidance Studies expressed as median step-through latency time (seconds).
The inhibitory (or sometimes called passive) avoidance (IA) test is a well accepted animal model of learning/memory used to assess the activity of novel muscarinic agonists to enhance cognitive function (Wanibuchi et al., Eur. J. Pharmacol., 1990, 187:479). Animals are placed in the illuminated (12×14×11 cm) portion of a two-chambered box, from which they enter through a guillotine door to the larger (24×13.5×12 cm) dark compartment of the box. Entry to the dark compartment is accompanied by a mild (0.5 mA), brief (2 seconds) footshock. Initial latencies to cross are recorded, with an imposed 60 second ceiling. Following a 72 hour retention interval, animals are returned to the illuminated chamber, and latency to return to the dark compartment is again recorded, with a ceiling of 180 seconds. No footshock is administered on the test day.
Twelve animals were used in each group.

cortical receptors = conditions: cited from earlier work
[4] = test system: cholinergic receptors located in the heart; conditions: cited from earlier work
[5] = background statement; cited from earlier work
parietotemporal cortex = parietotemporal cortex of humans; cited from earlier work
cognitive function = conditions: acutely and chronically administered; preserved in aged animals; cited from earlier work
withdrawal symptoms = conditions: double-blind studies; cited from earlier work
receptors = conditions: chronic nicotine administration; cited from earlier work
heart = conditions: in vivo; cited from earlier work
[6] = test system: anger, irritability, frustration, tension, anxiety; conditions: cited from earlier work
[7] = [^3 H]-MCC (3 nM), whole rat brain membranes, 60 min at 4° C., Cheng-Prusoff from IC50

CN1C(C#N)CCC1c1cccnc1 (stereo not drawn) [5'-cyanonicotine]
insecticidal activity (insecticidal activity): insecticidal activity

CN1C[C@H](O)CC1c1cccnc1 (stereo partly drawn) [Example 1, 4'-(R)-Hydroxynicotine oxalate]
Ki [1, 7]: 29 nM

CO[C@@H]1CC(c2cccnc2)N(C)C1 (stereo partly drawn) [Example 2, 4'-(R)-Methoxynicotine oxalate]
Ki [1, 7]: 25 nM

CN1C[C@@H](F)CC1c1cccnc1 (stereo partly drawn) [Example 3, 4'-(S)-Fluoronicotine dioxalate]
Ki [1, 7]: 35 nM

C[C@@H]1CC(c2cccnc2)N(C)C1.O=C(O)C(=O)O.O=C(O)C(=O)O (stereo partly drawn) [Example 4, 4'-(R)-Methylnicotine dioxalate]
Ki [1, 7]: 4.2 nM | anxiolytic response (time in open arms) ([2]; 0.62-6.2 μmol/kg IP, 15 min before test, p<0.05 vs control, FIG. 4): clear anxiolytic response | anxiolytic effect compared with (-)nicotine ([2]; FIG. 4): anxiolytic effect similar to (-)nicotine

CN1C[C@@H](Cc2ccccc2)CC1c1cccnc1 (stereo partly drawn) [Example 5, 4'-(S)-Benzylnicotine dioxalate]
Ki [1, 7]: 135 nM

CC[C@H]1CC(c2cccnc2)N(C)C1 (stereo partly drawn) [Example 6, 4'-(S)-Ethylnicotine dioxalate]
Ki [1, 7]: 53 nM

CN1C[C@H](CF)CC1c1cccnc1.O=C(O)C(=O)O (stereo partly drawn) [Example 8, 4'-(R)-Fluoromethylnicotine oxalate]
Ki [1, 7]: 10 nM | facilitation of retention of the avoidance response [3]: significantly facilitated the retention of the avoidance response

CN1CCC(CF)C1c1cccnc1 (stereo not drawn) [Example 9, 3'-Fluoromethylnicotine oxalate]
Ki [1, 7]: 106 nM

CC1CCN(C)C1c1cccnc1 (stereo not drawn) [Example 10, 3'-methylnicotine dioxalate]
Ki [1, 7]: 23 nM

CN1C[C@@H](C#N)CC1c1cccnc1 (stereo partly drawn) [Example 11, 4'-(S)-Cyanonicotine dioxalate]
Ki [1, 7]: 7 nM

CC(=O)O[C@@H]1CC(c2cccnc2)N(C)C1 (stereo partly drawn) [Example 12, 4'-(R)-Acetyloxynicotine oxalate]
Ki [1, 7]: 162 nM

CC1CN(C)C(c2cccnc2)C1C (stereo not drawn) [Example 13, 3',4'-Dimethylnicotine oxalate]
Ki [1, 7]: 105 nM

CN1C[C@@H](CC#N)CC1c1cccnc1 (stereo partly drawn) [Example 16, 4'-(R)-Cyanomethylnicotine oxalate]
Ki [1, 7]: 53 nM

CN1C[C@H](OS(C)(=O)=O)CC1c1cccnc1 (stereo partly drawn) [Example 19, 4'-(R)-Methanesulfonyoxynicotine oxalate]
Ki [1, 7]: 276 nM

CCN1C(=O)CC2(CCN(C)CC2)C1=O [RS-86]
agonist efficacy at cortical receptors (cortical receptors): only a partial agonist at cortical receptors | agonist efficacy at cardiac receptors [4]: full agonist at cardiac receptors | potency and selectivity [5]: poor potency and lack of selectivity

COC(=O)C1=CCCN(C)C1 [arecoline]
Ki ([1]; arecoline comparator in text, unit inferred): 59 nM | pharmacokinetics [5]: unfavorable pharmacokinetics

C[N+](C)(C)CCOC(N)=O [carbachol]
CNS penetration [5]: poor CNS penetration

CNC1(C)C2CCC(C2)C1(C)C (stereo not drawn) [mecamylamine]
resting cortical perfusion (parietotemporal cortex): reduces resting cortical perfusion

CN1CCC[C@H]1c1cccnc1 [nicotine]
Ki [1, 7]: 1 nM | cognitive function (cognitive function): enhances cognitive function in rats | suppression/prevention of withdrawal signs and symptoms vs placebo (withdrawal symptoms): far superior to placebo in suppressing or preventing the appearance of many of the signs and symptoms of withdrawal | effect on receptor affinity (receptors): without affecting affinity | up-regulation of number of receptors (receptors): 50-100% | stimulant effects on the heart (heart): increasing cardiac workload and oxygen demand | time spent in open arms of the maze ([2]; (-)nicotine 0.1 and 0.3 mmol/kg, p<0.05 vs saline, 5 min test): significant increase in the time spent by the mice in the open arms of the maze | oral bioavailability [5]: poor oral bioavailability | pharmacokinetics [5]: unfavorable pharmacokinetics | anxiolytic properties ([6]; Pomerleau et al. 1984): anxiolytic properties | effect on anger, irritability, frustration, tension ([6]; U.S. Pat. No. 3,879,794, without general response depression, drowsiness or sedation): effective in reducing anger, irritability, frustration and feelings of tension
